Measurements from US9346786B2, “Pyrrolidine compounds” (Hoffmann-La Roche Inc., priority 2009, dated 2016).

Biological target: recombinant human NK3 receptor (Homo sapiens (Human), UniProt P29371)
Assay: biochemical
Format: binding
Details: [3H]SR142801, membranes of HEK293 cells transiently expressing recombinant human NK3 receptor; read-out: Data Ki (hNK-3 receptor affinity)
Method: [^3H]SR142801 Competition Binding Assay
hNK3 receptor binding experiment were performed using [^3H]SR142801 (Catalog No. TRK1035, specific activity: 74.0 Ci/mmol, Amersham, GE Healthcare UK limited, Buckinghamshire, UK) and membrane isolated from HEK293 cells transiently expressing recombinant human NK3 receptor. After thawing, the membrane homogenates were centrifuged at 48,000×g for […] at 4° C., the pellets were resuspended in the 50 mM Tris-HCl, 4 mM MnCl2, 1 μM phosphoramidon, 0.1% BSA binding buffer at pH 7.4 to a final assay concentration of 5 μg protein/well. For inhibition experiments, membranes were incubated with [^3H]SR142801 at a concentration equal to KD value of radioligand and 10 concentrations of the inhibitory compound (0.0003-10 μM) (in a total reaction volume of 500 μl) for 75 min at room temperature (RT). At the end of the incubation, membranes were filtered onto unitfilter (96-well white microplate with bonded GF/C filter preincubated 1 h in 0.3% PEI+0.3% BSA, Packard BioScience, Meriden, Conn.) with a Filtermate 196 harvester (Packard BioScience) and washed 4 times with ice-cold 50 mM Tris-HCl, pH 7.4 buffer. Nonspecific binding was measured in the presence of 10 μM SB222200 for both radioligands. The radioactivity on the filter was counted (5 min) on a Packard Top-count microplate scintillation counter with quenching correction after addition of 45 μl of microscint 40 (Canberra Packard S.A., Zürich, Switzerland) and shaking for 1 h. Inhibition curves were fitted according to the Hill equation: y=100/(1+(x/IC50)^nH), where nH=slope factor using Excel-fit 4 software (Microsoft). IC50 values were derived from the inhibition curve and the affinity constant (Ki) values were calculated using the Cheng-Prussoff equation Ki=IC50/(1+[L]/KD) where [L] is the concentration of radioligand and KD is its dissociation constant at the receptor, derived from the saturation isotherm. All experiments were performed in duplicate and the mean±standard error (SEM) of the individual Ki values was calculated.

Chain of recombinant human NK3 receptor (P29371 whole entry): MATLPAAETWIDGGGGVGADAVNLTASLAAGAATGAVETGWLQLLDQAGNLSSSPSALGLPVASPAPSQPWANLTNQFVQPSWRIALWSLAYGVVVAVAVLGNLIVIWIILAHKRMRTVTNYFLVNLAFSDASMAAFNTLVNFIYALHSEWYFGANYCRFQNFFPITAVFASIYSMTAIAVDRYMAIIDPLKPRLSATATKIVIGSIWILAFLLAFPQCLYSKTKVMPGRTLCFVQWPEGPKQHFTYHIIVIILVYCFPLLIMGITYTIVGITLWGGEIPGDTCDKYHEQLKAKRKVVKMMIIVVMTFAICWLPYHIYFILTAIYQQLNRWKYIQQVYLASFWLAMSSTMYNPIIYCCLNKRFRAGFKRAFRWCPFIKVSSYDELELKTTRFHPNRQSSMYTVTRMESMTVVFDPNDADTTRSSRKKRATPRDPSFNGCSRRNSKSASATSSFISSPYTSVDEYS

Structure (SMILES)	Ki [nM]
CCN(C(=O)Oc1ccc(F)cc1)[C@@H]1CN(C(=O)C2CCN(C(=O)c3ccc(F)cn3)CC2)C[C@H]1c1ccc(Cl)c(F)c1 [Example 75, {(3S,4R)-4-(4-Chloro-3-fluoro-phenyl)-1-[1-(5-fluoro-pyridine-2-carbonyl)-piperidine-4-carbonyl]-pyrrolidin-3-yl}-ethyl-carbamic acid 4-fluoro-phenyl ester]	3
CCN(C(=O)Oc1ccc(F)cc1)[C@@H]1CN(C(=O)C2CCN(c3ccc(C#N)nn3)CC2)C[C@H]1c1ccc(F)c(F)c1 [Example 58, [(3S,4R)-1-[1-(6-Cyano-pyridazin-3-yl)-piperidine-4-carbonyl]-4-(3,4-difluoro-phenyl)-pyrrolidin-3-yl]-ethyl-carbamic acid 4-fluoro-phenyl ester]	5
CCN(C(=O)Oc1ccc(F)cc1)[C@@H]1CN(C(=O)C2CCN(C(=O)c3ccc(C#N)nc3)CC2)C[C@H]1c1ccc(Cl)c(F)c1 [Example 79, {(3S,4R)-4-(4-Chloro-3-fluoro-phenyl)-1-[1-(6-cyano-pyridine-3-carbonyl)-piperidine-4-carbonyl]-pyrrolidin-3-yl}-ethyl-carbamic acid 4-fluoro-phenyl ester]	8
CCN(C(=O)Oc1ccc(F)cc1)[C@H]1CN(C(=O)C2CCN(c3ccc(S(C)(=O)=O)cn3)CC2)C[C@@H]1c1ccc(Cl)cc1 [Example 10, [(3R,4S)-4-(4-Chloro-phenyl)-1-(5′-methanesulfonyl-3,4,5,6-tetrahydro-2H-[1,2′]bipyridinyl-4-carbonyl)-pyrrolidin-3-yl]-ethyl-carbamic acid 4-fluoro-phenyl ester]	65
N#Cc1ccc(N2CCC(C(=O)N3C[C@H](c4ccc(Cl)cc4)[C@@H](N(C(=O)Oc4ccc(F)cc4)C4CC4)C3)CC2)nc1 [Example 34, [(3R,4S)-4-(4-Chloro-phenyl)-1-(5′-cyano-3,4,5,6-tetrahydro-2H-[1,2′]bipyridinyl-4-carbonyl)-pyrrolidin-3-yl]-cyclopropyl-carbamic acid 4-fluoro-phenyl ester]	116
CCN(C(=O)Oc1ccc(F)cc1)[C@@H]1CN(C(=O)C2CCN(c3ccc(Cl)cn3)CC2)C[C@H]1c1ccc(Cl)c(Cl)c1 [Example 113, [(3S,4R)-1-(5′-Chloro-3,4,5,6-tetrahydro-2H-[1,2′]bipyridinyl-4-carbonyl)-4-(3,4-dichloro-phenyl)-pyrrolidin-3-yl]-ethyl-carbamic acid 4-fluoro-phenyl ester]	0.5
CCN(C(=O)Oc1ccc(F)cc1)[C@@H]1CN(C(=O)C2CCN(c3ccc(Cl)cn3)CC2)C[C@H]1c1ccc(F)c(Cl)c1 [Example 118, [(3S,4R)-4-(3-Chloro-4-fluoro-phenyl)-1-(5′-chloro-3,4,5,6-tetrahydro-2H-[1,2′]bipyridinyl-4-carbonyl)-pyrrolidin-3-yl]-ethyl-carbamic acid 4-fluoro-phenyl ester]	1.8
CCN(C(=O)Oc1ccc(F)cc1)[C@@H]1CN(C(=O)C2CCN(c3ccc(C#N)cn3)CC2)C[C@H]1c1ccc(F)c(F)c1 [Example 48, [(3S,4R)-1-(5′-Cyano-3,4,5,6-tetrahydro-2H-[1,2′]bipyridinyl-4-carbonyl)-4-(3,4-difluoro-phenyl)-pyrrolidin-3-yl]-ethyl-carbamic acid 4-fluoro-phenyl ester]	2
CCN(C(=O)Oc1ccc(F)cc1)[C@@H]1CN(C(=O)C2CCN(C(=O)c3ccc(C#N)cc3)CC2)C[C@H]1c1ccc(Cl)c(F)c1 [Example 76, {(3S,4R)-4-(4-Chloro-3-fluoro-phenyl)-1-[1-(4-cyano-benzoyl)-piperidine-4-carbonyl]-pyrrolidin-3-yl}-ethyl-carbamic acid 4-fluoro-phenyl ester]	17
CCN(C(=O)Oc1ccc(F)cc1)[C@@H]1CN(C(=O)C2CCN(c3ccc(Cl)cn3)CC2)C[C@H]1c1ccc(F)c(F)c1 [Example 49, [(3S,4R)-1-(5′-Chloro-3,4,5,6-tetrahydro-2H-[1,2′]bipyridinyl-4-carbonyl)-4-(3,4-difluoro-phenyl)-pyrrolidin-3-yl]-ethyl-carbamic acid 4-fluoro-phenyl ester]	5
CCN(C(=O)Oc1ccc(F)cc1)[C@H]1CN(C(=O)C2CCN(c3ccc(C#N)nn3)CC2)C[C@@H]1c1ccc(Cl)cc1 [Example 12, {(3R,4S)-4-(4-Chloro-phenyl)-1-[1-(6-cyano-pyridazin-3-yl)-piperidine-4-carbonyl]-pyrrolidin-3-yl}-ethyl-carbamic acid 4-fluoro-phenyl ester]	23
CCN(C(=O)Oc1ccc(F)cc1)[C@@H]1CN(C(=O)C2CCN(c3ccc(C(C)=O)cn3)CC2)C[C@H]1c1ccc(F)c(Cl)c1 [Example 120, [(3S,4R)-1-(5′-Acetyl-3,4,5,6-tetrahydro-2H-[1,2′]bipyridinyl-4-carbonyl)-4-(3-chloro-4-fluoro-phenyl)-pyrrolidin-3-yl]-ethyl-carbamic acid 4-fluoro-phenyl ester]	1.7
CCN(C(=O)Oc1ccc(F)cc1)[C@@H]1CN(C(=O)C2CCN(C(=O)C3CC3(F)F)CC2)C[C@H]1c1ccc(Cl)cc1 (stereo partly drawn) [Example 96, {(3S,4R)-4-(4-Chloro-phenyl)-1-[1-(2,2-difluoro-cyclopropanecarbonyl)-piperidine-4-carbonyl]-pyrrolidin-3-yl}-ethyl-carbamic acid 4-fluoro-phenyl ester]	3.4
CCN(C(=O)Oc1ccc(F)cc1)[C@@H]1CN(C(=O)C2CCN(C(=O)OC(C)(C)C)CC2)C[C@H]1c1ccc(Cl)c(F)c1 [Example 39, 4-{(3R,4S)-3-(4-Chloro-3-fluoro-phenyl)-4-[ethyl-(4-fluoro-phenoxycarbonyl)-amino]-pyrrolidine-1-carbonyl}-piperidine-1-carboxylic acid tert-butyl ester]	4
CCN(C(=O)Oc1ccc(F)cc1)[C@@H]1CN(C(=O)C2CCN(C(=O)c3cnc(C(F)(F)F)cn3)CC2)C[C@H]1c1ccc(Cl)c(F)c1 [Example 78, {(3S,4R)-4-(4-Chloro-3-fluoro-phenyl)-1-[1-(5-trifluoromethyl-pyrazine-2-carbonyl)-piperidine-4-carbonyl]-pyrrolidin-3-yl}-ethyl-carbamic acid 4-fluoro-phenyl ester]	5
CCN(C(=O)Oc1ccc(F)cc1)[C@@H]1CN(C(=O)C2CCN(C(=O)CC#N)CC2)C[C@H]1c1ccc(Cl)cc1 [Example 93, {(3S,4R)-4-(4-Chloro-phenyl)-1-[1-(2-cyano-acetyl)-piperidine-4-carbonyl]-pyrrolidin-3-yl}-ethyl-carbamic acid 4-fluoro-phenyl ester]	7.1
CCN(C(=O)Oc1ccc(F)cc1)[C@@H]1CN(C(=O)C2CCN(C(=O)C3(C(F)(F)F)CCC3)CC2)C[C@H]1c1ccc(Cl)cc1 [Example 92, {(3S,4R)-4-(4-Chloro-phenyl)-1-[1-(1-trifluoromethyl-cyclobutanecarbonyl)-piperidine-4-carbonyl]-pyrrolidin-3-yl}-ethyl-carbamic acid 4-fluoro-phenyl ester]	6.6

Same assay, conditions: read-out: Data Ki (hNK-3 receptor affinity)

Structure (SMILES)	Ki [nM]
N#Cc1ccc(N2CCC(C(=O)N3C[C@@H](N(C(=O)Oc4ccc(F)cc4)C4CC4)[C@H](c4ccc(Cl)cc4)C3)CC2)nn1 [Example 32, {(3S,4R)-4-(4-Chloro-phenyl)-1-[1-(6-cyano-pyridazin-3-yl)-piperidine-4-carbonyl]-pyrrolidin-3-yl}-cyclopropyl-carbamic acid 4-fluoro-phenyl ester]	52
CCN(C(=O)Oc1ccc(F)cc1)[C@@H]1CN(C(=O)C2CCN(c3cc(C#N)ccn3)CC2)C[C@H]1c1ccc(Cl)c(F)c1 [Example 45, [(3S,4R)-4-(4-Chloro-3-fluoro-phenyl)-1-(4′-cyano-3,4,5,6-tetrahydro-2H-[1,2′]bipyridinyl-4-carbonyl)-pyrrolidin-3-yl]-ethyl-carbamic acid 4-fluoro-phenyl ester]	3
CCN(C(=O)Oc1ccc(F)cc1)[C@@H]1CN(C(=O)C2CCN(c3ccc(C(C)O)cn3)CC2)C[C@H]1c1ccc(Cl)cc1 (stereo partly drawn) [Example 108, {(3S,4R)-4-(4-Chloro-phenyl)-1-[5′-(1-hydroxy-ethyl)-3,4,5,6-tetrahydro-2H-[1,2]bipyridinyl-4-carbonyl]-pyrrolidin-3-yl}-ethyl-carbamic acid 4-fluoro-phenyl ester]	4.7
CCN(C(=O)Oc1ccc(F)cc1)[C@@H]1CN(C(=O)C2CCN(C(=O)C3(C)CC3)CC2)C[C@H]1c1ccc(Cl)c(Cl)c1 [Example 5, {(3S,4R)-4-(3,4-Dichloro-phenyl)-1-[1-(1-methyl-cyclopropanecarbonyl)-piperidine-4-carbonyl]-pyrrolidin-3-yl}-ethyl-carbamic acid 4-fluoro-phenyl ester]	2
